Assay [1] deals with T1, hP2X2/3H (Homo sapiens, UniProt P56373+Q9UBL9).
T1 construct: expressed in transfected cells; host or cells: e.g. HEK293 or 1321N1
T1 sequence (Q9UBL9 1-471): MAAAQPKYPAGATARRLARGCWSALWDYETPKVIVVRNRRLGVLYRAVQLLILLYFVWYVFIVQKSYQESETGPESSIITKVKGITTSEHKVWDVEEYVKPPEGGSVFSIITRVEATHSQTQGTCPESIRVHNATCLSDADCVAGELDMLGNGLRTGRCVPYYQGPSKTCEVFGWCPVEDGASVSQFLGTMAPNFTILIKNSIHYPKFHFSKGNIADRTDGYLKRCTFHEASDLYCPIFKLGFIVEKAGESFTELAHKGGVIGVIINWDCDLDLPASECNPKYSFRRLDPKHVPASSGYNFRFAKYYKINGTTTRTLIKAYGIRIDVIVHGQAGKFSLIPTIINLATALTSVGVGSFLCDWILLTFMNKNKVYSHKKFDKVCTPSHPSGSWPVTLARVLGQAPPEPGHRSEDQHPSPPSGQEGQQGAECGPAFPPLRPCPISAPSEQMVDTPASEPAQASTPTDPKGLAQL
T1 sequence (P56373 1-397): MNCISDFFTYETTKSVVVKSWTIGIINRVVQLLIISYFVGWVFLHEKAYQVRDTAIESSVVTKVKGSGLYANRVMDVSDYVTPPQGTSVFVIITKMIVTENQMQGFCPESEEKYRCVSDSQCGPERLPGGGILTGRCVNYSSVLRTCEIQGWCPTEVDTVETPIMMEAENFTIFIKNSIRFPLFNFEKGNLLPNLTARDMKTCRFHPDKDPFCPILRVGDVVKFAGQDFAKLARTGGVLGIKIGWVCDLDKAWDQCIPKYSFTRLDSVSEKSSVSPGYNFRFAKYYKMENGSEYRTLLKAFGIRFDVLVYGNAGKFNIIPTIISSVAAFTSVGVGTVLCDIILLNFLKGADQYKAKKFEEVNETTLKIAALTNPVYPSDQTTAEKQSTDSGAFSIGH
Description: Calcium uptake assay (P2X antagonist assay), P2X2/3 heteromer. It counts as cell-based. The conditions noted are these: Ca influx (calcium uptake assay), hP2X2/3H; read-out: IC50 hP2X2/3H. Put shortly: (§1)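 Stably or transiently transfected HEK293 or 1321N1 cells; the heteromer is made by adding P2X3 to a P2X2-stable line, with heteromer function isolated pharmacologically. The peak-minus-baseline FLIPR calcium signal gives % inhibition and a 4-parameter-logistic IC50.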

The target of assay [2] is T2, hP2X3 (Homo sapiens, UniProt P56373).
T2 construct: expressed in transfected cells; host or cells: e.g. HEK293 or 1321N1
T2 sequence (P56373 1-397): T1 sequence (P56373 1-397)
Description: Calcium uptake assay (P2X antagonist assay), P2X3 homomer. The conditions noted are these: Ca influx (calcium uptake assay), hP2X3; read-out: IC50 hP2X3. The assay is classed as cell-based. Put shortly: as §1

IC50 data for 38 molecules are collected here from US8946439B2, “Amide compounds, compositions and uses thereof” (Evotec AG, priority 2008, dated 2015).

In the case of `Cc1ccc(-c2cc(Oc3nccs3)cc(C(=O)N[C@H](C)c3cnc(C)nc3)c2)cc1` [Compound 236, (R)-4′-Methyl-N-(1-(2-methylpyrimidin-5-yl)ethyl)-5-(thiazol-2-yloxy)biphenyl-3-carboxamide], the IC50 in assay [1] and in assay [2] was less than 0.1 µM in each case.

`Cc1ccc(-c2cc(Oc3nccs3)cc(C(=O)NCc3cnc(C)nc3)c2)cc1` [Compound 237]: the IC50 in assay [1] was 0.1 to 0.5 µM; in assay [2], less than 0.1 µM.

In the case of `Cc1ccc(-c2cc(Oc3nccs3)cc(C(=O)NCc3ccc(C)nc3)c2)cc1` [Compound 238], the IC50 in assay [1] and in assay [2] was 0.1 to 0.5 µM each time.

Regarding `Cc1ccc(-c2cc(Oc3nccs3)cc(C(=O)N[C@H](C)c3ccc(C)nc3)c2)cc1` [Compound 239], the IC50 in assay [1] and in assay [2] was less than 0.1 µM each time.

For the molecule `Cc1ccc(-c2cc(C(=O)NCc3ccc(C)nc3)cc(C(O)c3ccccn3)c2)cc1` (stereo not shown) [Compound 240, 5-(Hydroxy(pyridin-2-yl)methyl)-4′-methyl-N-((6-methylpyridin-3-yl)methyl)biphenyl-3-carboxamide], the IC50 in assay [1] and in assay [2] was less than 0.1 µM each time.

For `Cc1ccc(-c2cc(C(=O)N[C@H](C)c3ccc(C)nc3)cc(C(O)c3ccccn3)c2)cc1` (stereo partly drawn) [Compound 241, 5-(Hydroxy(pyridin-2-yl)methyl)-4′-methyl-N—((R)-1-(6-methylpyridin-3-yl)ethyl)biphenyl-3-carboxamide], the IC50 in assay [1] and in assay [2] was less than 0.1 µM throughout.

Regarding `Cc1ccc(-c2cc(Oc3ccccn3)cc(C(=O)N[C@H](C)c3ccc(C)nc3)c2)cc1` [Compound 242, (R)-4′-Methyl-N-(1-(6-methylpyridin-3-yl)ethyl)-5-(pyridin-2-yloxy)biphenyl-3-carboxamide], the IC50 in assay [1] is less than 0.1 µM; in assay [2], 0.1 to 0.5 µM.

Turning to `Cc1ccc(-c2cc(Oc3ccccn3)cc(C(=O)N[C@H](C)c3cnc(C)nc3)c2)cc1` [Compound 243], the IC50 was less than 0.1 µM in assay [1] and 0.1 to 0.5 µM in assay [2].

Regarding `Cc1ccc(-c2cc(CN3CCN(C)CC3)cc(C(=O)NCc3ccc(C)nc3)c2)nc1` [Compound 244], the IC50 in assay [1] lay in the range of 0.501 to 1 µM; in assay [2] it was 0.1 to 0.5 µM.

Turning to `Cc1ccc(-c2cc(Oc3ncccn3)cc(C(=O)N[C@H](C)c3ccc(C)nc3)c2)c(C#N)c1` [Compound 246], the IC50 in assay [1] was 0.1 to 0.5 µM; in assay [2], less than 0.1 µM.

`Cc1ccc(-c2cc(Oc3ncccn3)cc(C(=O)N[C@H](C)c3cnc(C)nc3)c2)c(C#N)c1` [Compound 247]: the IC50 in assay [1] is 0.1 to 0.5 µM; in assay [2] it was less than 0.1 µM.

In the case of `COCCOc1cc(C(=O)NCc2ccc(C)nc2)cc(-c2ccc(C)cc2)c1` [Compound 248, 5-(2-Methoxyethoxy)-4′-methyl-N-((6-methylpyridin-3-yl)methyl)biphenyl-3-carboxamide], the IC50 in assay [1] and in assay [2] was less than 0.1 µM each time.

On to `COCCOc1cc(C(=O)N[C@H](C)c2ccc(C)nc2)cc(-c2ccc(C)cc2)c1` [Compound 249], for which the IC50 in assay [1] and in assay [2] was less than 0.1 µM in each case.

Regarding `COCCOc1cc(C(=O)NCc2cnc(C)nc2)cc(-c2ccc(C)cc2)c1` [Compound 250], the IC50 in assay [1] was 0.1 to 0.5 µM; in assay [2], less than 0.1 µM.

For the molecule `COCCOc1cc(C(=O)N[C@H](C)c2cnc(C)nc2)cc(-c2ccc(C)cc2)c1` [Compound 251], the IC50 in assay [1] and in assay [2] was less than 0.1 µM in each case.

On to `COCCOc1cc(C(=O)N[C@H](C)c2ccc(C)nc2)cc(-c2ccc(C)cc2C#N)c1` [Compound 252], for which the IC50 in assay [1] and in assay [2] was less than 0.1 µM each time.

In the case of `COCCOc1cc(C(=O)N[C@H](C)c2cnc(C)nc2)cc(-c2ccc(C)cc2C#N)c1` [Compound 253], the IC50 in assay [1] and in assay [2] was less than 0.1 µM in each case.

For `Cc1ccc(-c2cc(Oc3nccs3)cc(C(=O)N[C@H](C)c3cnc(C)nc3)c2)c(C#N)c1` [Compound 254, (R)-2′-Cyano-4′-methyl-N-(1-(2-methylpyrimidin-5-yl)ethyl)-5-(thiazol-2-yloxy)biphenyl-3-carboxamide], the IC50 in assay [1] and in assay [2] was less than 0.1 µM throughout.

For `Cc1ccc(-c2cc(Oc3nccs3)cc(C(=O)N[C@H](C)c3ccc(C)nc3)c2)c(C#N)c1` [Compound 255], the IC50 in assay [1] and in assay [2] was less than 0.1 µM in each case.

`Cc1ccc(-c2cc(C(=O)NCc3ccc(C)[n+]([O-])c3)cc(S(C)(=O)=O)c2)cc1` [Compound 256, 2-Methyl-5-((4′-methyl-5-(methylsulfonyl)biphenyl-3-ylcarboxamido)methyl)pyridine 1-oxide]: the IC50 in assay [1] and in assay [2] was less than 0.1 µM in each case.

For `Cc1ccc(-c2cc(C(=O)N[C@H](CO)c3ccc(C)nc3)cc(S(C)(=O)=O)c2)cc1` [Compound 257, (S)—N-(2-Hydroxy-1-(6-methylpyridin-3-yl)ethyl)-4′-methyl-5-(methylsulfonyl)biphenyl-3-carboxamide], the IC50 in assay [1] and in assay [2] was less than 0.1 µM in each case.

Turning to `Cc1ccc(-c2cc(Oc3ccccn3)cc(C(=O)N[C@H](C)c3cnc(C)nc3)c2)c(C#N)c1` [Compound 258], the IC50 in assay [1] is 0.1 to 0.5 µM; in assay [2], less than 0.1 µM.

Regarding `Cc1ccc(-c2cc(Oc3ccccn3)cc(C(=O)N[C@H](C)c3ccc(C)nc3)c2)c(C#N)c1` [Compound 259], the IC50 in assay [1] and in assay [2] was less than 0.1 µM each time.

Consider `Cc1ccc(-c2cc(Oc3nccs3)cc(C(=O)NCc3ccc(C)nc3)c2)c(C#N)c1` [Compound 260], for which the IC50 is 0.1 to 0.5 µM in assay [1] and less than 0.1 µM in assay [2].

As to `Cc1ccc(-c2cc(Oc3nccs3)cc(C(=O)NCc3cnc(C)nc3)c2)c(C#N)c1` [Compound 261], the figures for the IC50 in assay [1] and in assay [2] were 0.1 to 0.5 µM and less than 0.1 µM, respectively.

Consider `COCCOc1cc(C(=O)NCc2cnc(C)nc2)cc(-c2ccc(C)cc2C#N)c1` [Compound 262], for which the values for the IC50 in assay [1] and in assay [2] were 0.1 to 0.5 µM and less than 0.1 µM, respectively.

In the case of `COCCOc1cc(C(=O)NCc2ccc(C)nc2)cc(-c2ccc(C)cc2C#N)c1` [Compound 263], the figures for the IC50 in assay [1] and in assay [2] were 0.1 to 0.5 µM and less than 0.1 µM, respectively.

Take `Cc1ccc(-c2cc(Oc3nccs3)cc(C(=O)N[C@H](C)c3ccc(C)nc3)c2)nc1` [Compound 264, (R)-3-(5-Methylpyridin-2-yl)-N-(1-(6-methylpyridin-3-yl)ethyl)-5-(thiazol-2-yloxy)benzamide]: the IC50 in assay [1] and in assay [2] was less than 0.1 µM each time.

For the molecule `COCCOc1cc(C(=O)N[C@H](C)c2ccc(C)nc2)cc(-c2ccc(C)cn2)c1` [Compound 265], the IC50 is 0.1 to 0.5 µM in assay [1] and less than 0.1 µM in assay [2].

Consider `COCCOc1cc(C(=O)N[C@H](C)c2cnc(C)nc2)cc(-c2ccc(C)cn2)c1` [Compound 266], for which the IC50 in assay [1] was 0.1 to 0.5 µM; in assay [2], less than 0.1 µM.

Consider `Cc1ccc(-c2cc(C(=O)NCc3cnc(C)nc3)cc(C(O)c3ccccn3)c2)cc1` (stereo not shown) [Compound 267], for which the IC50 in assay [1] and in assay [2] was less than 0.1 µM each time.

Consider `Cc1ccc(-c2cc(C(=O)N[C@H](C)c3cnc(C)nc3)cc(C(O)c3ccccn3)c2)cc1` (stereo partly shown) [Compound 268], for which the IC50 in assay [1] and in assay [2] was less than 0.1 µM in each case.

Consider `Cc1ccc(-c2cc(Oc3nccs3)cc(C(=O)N[C@H](C)c3cnc(C)nc3)c2)nc1` [Compound 269, (R)-3-(5-Methylpyridin-2-yl)-N-(1-(2-methylpyrimidin-5-yl)ethyl)-5-(thiazol-2-yloxy)benzamide], for which the IC50 in assay [1] and in assay [2] was less than 0.1 µM each time.

Regarding `Cc1ccc(-c2cc(Oc3ccccn3)cc(C(=O)N[C@H](C)c3cnc(C)nc3)c2)nc1` [Compound 270], the IC50 in assay [1] and in assay [2] was less than 0.1 µM throughout.

`Cc1ccc(-c2cc(Oc3ccccn3)cc(C(=O)N[C@H](C)c3ccc(C)nc3)c2)nc1` [Compound 271]: the IC50 in assay [1] and in assay [2] was less than 0.1 µM in each case.

Turning to `Cc1ccc(-c2cc(Oc3ncccn3)cc(C(=O)N[C@H](C)c3ccc(C)nc3)c2)nc1` [Compound 272], the IC50 is 0.1 to 0.5 µM in assay [1] and less than 0.1 µM in assay [2].

As to `Cc1ccc(-c2cc(Oc3ncccn3)cc(C(=O)N[C@H](C)c3cnc(C)nc3)c2)nc1` [Compound 273], the IC50 is 0.501 to 1 µM in assay [1] and 0.1 to 0.5 µM in assay [2].

Turning to `COCc1cc(C(=O)N[C@H](C)c2cnc(C)nc2)cc(-c2ccc(C)cn2)c1` [Compound 274, (R)-3-(Methoxymethyl)-5-(5-methylpyridin-2-yl)-N-(1-(2-methylpyrimidin-5-yl)ethyl)benzamide], the IC50 in assay [1] and in assay [2] was 0.1 to 0.5 µM throughout.
